This passage reports IC50 results from patent US20240316051A1, “A PHARMACEUTICAL COMBINATION AND USE THEREOF” (Ascentage Pharma (Suzhou) Co., Ltd., priority 2021, published 2024).

Structures are written as SMILES.

T1 sequence (O75530 whole entry): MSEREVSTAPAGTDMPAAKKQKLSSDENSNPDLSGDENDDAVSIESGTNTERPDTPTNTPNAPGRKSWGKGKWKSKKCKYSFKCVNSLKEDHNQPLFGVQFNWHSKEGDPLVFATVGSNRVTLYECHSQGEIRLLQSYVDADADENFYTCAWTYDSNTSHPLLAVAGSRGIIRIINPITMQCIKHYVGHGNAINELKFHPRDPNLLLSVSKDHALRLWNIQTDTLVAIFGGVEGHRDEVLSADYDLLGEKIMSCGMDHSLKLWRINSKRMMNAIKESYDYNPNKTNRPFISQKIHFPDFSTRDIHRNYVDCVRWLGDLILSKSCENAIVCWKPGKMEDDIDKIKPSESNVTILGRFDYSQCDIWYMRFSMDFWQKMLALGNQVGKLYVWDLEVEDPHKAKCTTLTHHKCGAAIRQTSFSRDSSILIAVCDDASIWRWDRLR

One assay has as its target T1, EED (1-441)-His protein (Homo sapiens, UniProt O75530).
T1 construct: 20 nM EED (1-441)-His protein
Put plainly: EED-H3K27Me3 peptide competition binding assay by AlphaScreen. The following applies: IC50 class, Table 4B, read-out: Alpha screen. The procedure: EED-H3K27Me3 Peptide Competition Binding Assay by AlphaScreen (α-Screen):
The compounds at each concentration (2.5 μl of each) were transferred into a 384-well Perkin Elmer OptiPlate-384 white plates. 5 μl of solutions containing 20 nM EED (1-441)-His protein in the buffer (25 mM HEPES, pH 8, 0.02% Tween-20, 0.5% BSA) were added to the wells and then incubated with compound for 15 min. 2.5 μl of solutions containing 20 nM biotin-H3K27Me3 (19-33) peptide in the buffer (25 mM HEPES, pH 8, 0.02% Tween-20, 0.5% BSA) were added to the wells and then incubated with compound for 30 min. AlphaScreen detection beads mix was prepared immediately before use by mixing nickel chelate acceptor beads and streptavidin donor beads in a 1:1 ratio (Perkin Elmer, Product No. 6760619C/M/R) into the buffer described above. Then 10 μl of the detection beads mix was added to the plate and incubated in the dark at RT for 1 h. The final concentration of donor and acceptor beads was 10 μg/ml for each. Plates were read on CLARIOStar plate reader (BMG Labtech) using the AlphaScreen setting adapted for optimal signal detection with a 615 nm filter, after sample excitation at 680 nm. The emission signal at 615 nm was used to quantify compound inhibition. AlphaScreen signals were normalized based on the reading coming from the positive (maximum signal control) and negative controls (minimum signal control) to give percentage of activities left. The data were then fit to a dose response equation to get the IC50 values.
Turning to `CCc1cnc2n1Cc1cc(C(F)(F)F)ncc1-c1cnc(NCc3c(F)ccc4c3CCO4)n3cnc-2c13` [E 37, 5-ethyl-N-((5-fluoro-2,3-dihydrobenzofuran-4-yl)methyl)-8-(trifluoromethyl)-6H-2,3,5a,9,12,13a-hexaazabenzo[4,5]cyclopenta[7,8]cycloocta[1,2,3-cd]inden-13-amine], the IC50 lay within 10 to 100 nM.

Turning to `CC(C)N1Cc2cc(C(F)F)ncc2-c2cnc(NCc3c(F)ccc4c3CCO4)n3cnc(c23)C1=O` [E 11, 7-(difluoromethyl)-12-(((5-fluoro-2,3-dihydro-benzofuran-4-yl)methyl)amino)-4-isopropyl-4,5-dihydro-3H-2,4,8,11,12a-pentaazabenzo[4,5] cycloocta[1,2,3-cd]inden-3-one], the IC50 is less than 10 nM.

As for `O=C1c2ncn3c(NCc4c(F)ccc5c4CCO5)ncc(c23)-c2ccc(C3CCOCC3)nc2CN1CC(F)(F)F` [E 45, 12-(((5-fluoro-2,3-dihydrobenzofuran-4-yl)methyl)amino)-7-(tetrahydro-2H-pyran-4-yl)-4-(2,2,2-trifluoroethyl)-4,5-dihydro-3H-2,4,6,11,12a-pentaazabenzo[4,5]cycloocta[1,2,3-cd]inden-3-one], the IC50 is less than 10 nM.

As to `Cc1cc2c(cn1)-c1cnc(NCc3c(F)ccc4c3CCO4)n3cnc(c13)C(=O)N(C(C)C)C2` [E 2, 12-(((5-fluoro-2,3-dihydrobenzofuran-4-yl)methyl)amino)-4-isopropyl-7-methyl-4,5-dihydro-3H-2,4,8,11,12a-pentaazabenzo[4,5]cycloocta[1,2,3-cd] inden-3-one], the IC50 was less than 10 nM.

`Cc1onc2c1Cc1cc(C(F)(F)F)ncc1-c1cnc(NCc3c(F)ccc4c3CCO4)n3cnc-2c13` [E 35, N-((5-fluoro-2,3-dihydrobenzofuran-4-yl)methyl)-5-methyl-8-(trifluoromethyl)-6H-4-oxa-2,3,9,12, 13a-pentaazabenzo[4,5]cyclopenta[7,8]cycloocta [1,2,3-cd]inden-13-amine]: the IC50 was 10 to 100 nM.

In the case of `Fc1ccc2c(c1CNc1ncc3c4c(ncn14)-c1nccn1Cc1cc(C(F)(F)F)ncc1-3)CCO2` [E 33, N-((5-fluoro-2,3-dihydrobenzofuran-4-yl)methyl)-8-(trifluoromethyl)-6H-2,3,5a,9,12,13a-hexaaza-benzo[4,5]cyclopenta[7,8]cycloocta[1,2,3-cd]inden-13-amine], the IC50 fell in the range of 10 to 100 nM.

The same assay, now with this note: Table 4A, read-out: Alpha screen.
Consider `CC(F)(F)CN1Cc2cc(C(F)(F)F)ccc2-c2cnc(NCc3c(F)ccc4c3CCO4)n3cnc(c23)C1=O` [Compound 63, 4-(2,2-difluoropropyl)-12-(((5-fluoro-2,3-dihydrobenzofuran-4-yl)methyl)amino)-7-(trifluoromethyl)-4,5-dihydro-3H-2,4,11,12a-tetraazabenzo[4,5] cycloocta[1,2,3-cd]inden-3-one], for which the IC50 amounted to 1.89 nM.

Turning to `CC(C)(F)CN1Cc2cc(C(F)(F)F)ccc2-c2cnc(NCc3c(F)ccc4c3CCO4)n3cnc(c23)C1=O` [Compound 62, 12-(((5-fluoro-2,3-dihydrobenzofuran-4-yl)methyl)amino)-4-(2-fluoro-2-methylpropyl)-7-(trifluoromethyl)-4,5-dihydro-3H-2,4, 11,12a-tetraazabenzo [4,5]cycloocta[1,2,3-cd]inden-3-one], the IC50 was determined as 1.44 nM.

Take `CN1CCC(N2Cc3cc(C(F)(F)F)ccc3-c3cnc(NCc4c(F)ccc5c4CCO5)n4cnc(c34)C2=O)CC1` [Compound 74, 12-(((5-fluoro-2,3-dihydrobenzofuran-4-yl)methyl)amino)-4-(1-methylpiperidin-4-yl)-7-(trifluoro-methyl)-4,5-dihydro-3H-2,4,11,12a-tetraazabenzo [4,5]cycloocta[1,2,3-cd]inden-3-one]: the IC50 is 1.67 nM.

On to `CC1(O)CC(CN2Cc3nc(C(F)(F)F)ccc3-c3cnc(NCc4c(F)ccc5c4CCO5)n4cnc(c34)C2=O)C1` (centres unmarked) [Compound 47, 12-(((5-fluoro-2,3-dihydrobenzofuran-4-yl)methyl)amino)-4-((3-hydroxy-3-methylcyclobutyl)methyl)-7-(trifluoromethyl)-4,5-dihydro-3H-2,4,6,11,12a-pentaazabenzo[4,5]cycloocta[1,2,3-cd]inden-3-one], for which the IC50 was found to be 0.91 nM.

`Cn1cc2c(n1)COC(=O)c1ncn3c(NCc4c(F)ccc5c4CCO5)ncc-2c13` [Compound 54, 11-(((5-fluoro-2,3-dihydrobenzofuran-4-yl)methyl)amino)-7-methyl-5,7-dihydro-3H-4-oxa-2,6,7,10, 11a-pentaazacyclopenta[4,5]cycloocta[1,2,3-cd] inden-3-one]: the IC50 amounted to 0.95 nM.

Consider `O=C1OCc2cc(C(F)(F)F)ccc2-c2cnc(NCc3cccc4c3OCO4)n3cnc1c23` [Compound 27, 12-((benzo[d][1,3]dioxol-4-ylmethyl)amino)-7-(trifluoromethyl)-3H,5H-4-oxa-2,11,12a-triazabenzo [4,5]cycloocta[1,2,3-cd]inden-3-one], for which the IC50 came out at 5.87 nM.

Consider `O=C1Nc2ccccc2-c2cnc(NCc3c(F)ccc4c3CCO4)n3cnc1c23` [Compound 3, 11-(((5-fluoro-2,3-dihydrobenzofuran-4-yl)methyl)amino)-2,4,10,11a-tetraazadibenzo[cd,f]azulen-3(4H)-one], for which the IC50 came to 6.88 nM.

Take `O=C1c2ncn3c(NCc4c(F)ccc5c4CCO5)ncc(c23)-c2cnc(C(F)(F)F)cc2CN1CC(F)(F)F` [Compound 84, 12-(((5-fluoro-2,3-dihydrobenzofuran-4-yl)methyl)amino)-4-(2,2,2-trifluoroethyl)-7-(trifluoromethyl)-4,5-dihydro-3H-2,4,8,11,12a-pentaazabenzo[4,5] cycloocta[1,2,3-cd]inden-3-one]: the IC50 was 3.07 nM.

For `O=C1c2ncn3c(NCc4c(F)ccc5c4CCO5)ncc(c23)-c2ccc(C(F)(F)F)cc2CN1CC(F)F` [Compound 81, 4-(2,2-difluoroethyl)-12-(((5-fluoro-2,3-dihydro-benzofuran-4-yl)methyl)amino)-7-(trifluoromethyl)-4,5-dihydro-3H-2,4,11,12a-tetraazabenzo[4,5] cycloocta[1,2,3-cd]inden-3-one], the IC50 was found to be 1.7 nM.

`O=C1NCc2ccccc2-c2cnc(NCc3c(F)ccc4c3CCO4)n3cnc1c23` [Compound 15, 12-(((5-fluoro-2,3-dihydrobenzofuran-4-yl)methyl)amino)-4,5-dihydro-3H-2,4,11,12a-tetraazabenzo [4,5]cycloocta[1,2,3-cd]inden-3-one]: the IC50 worked out at 0.52 nM.

Regarding `O=C1c2ncn3c(NCc4c(F)ccc5c4CCO5)ncc(c23)-c2ccc(C(F)(F)F)cc2CN1CC1COCCO1` (centres unmarked) [Compound 68, 4-((1,4-dioxan-2-yl)methyl)-12-(((5-fluoro-2,3-dihydrobenzofuran-4-yl)methyl)amino)-7-(trifluoro-methyl)-4,5-dihydro-3H-2,4,11,12a-tetraazabenzo [4,5]cycloocta[1,2,3-cd]inden-3-one], the IC50 worked out at 3.86 nM.

For `O=C1c2ncn3c(NCc4c(F)ccc5c4CCO5)ncc(c23)-c2cnc(C(F)(F)F)cc2CN1CC1(O)CC1` [Compound 43, 12-(((5-fluoro-2,3-dihydrobenzofuran-4-yl)methyl)amino)-4-((1-hydroxycyclopropyl)methyl)-7-(trifluoromethyl)-4,5-dihydro-3H-2,4,8,11,12a-pentaazabenzo[4,5]cycloocta[1,2,3-cd]inden-3-one], the IC50 turned out to be 1.05 nM.

For `O=C1OCc2cnc(C(F)(F)F)cc2-c2cnc(NCc3c(F)ccc4c3CCO4)n3cnc1c23` [Compound 32, 12-(((5-fluoro-2,3-dihydrobenzofuran-4-yl)methyl)amino)-8-(trifluoromethyl)-3H,5H-4-oxa-2,7,11, 12a-tetraazabenzo[4,5]cycloocta[1,2,3-cd]inden-3-one], the IC50 turned out to be 1.84 nM.

On to `O=C1c2ncn3c(NCc4c(F)ccc5c4CCO5)ncc(c23)-c2ccsc2CN1C1CC1` [Compound 88, 4-cyclopropyl-11-(((5-fluoro-2,3-dihydrobenzofuran-4-yl)methyl)amino)-4,5-dihydro-3H-6-thia-2,4, 10,11a-tetraazacyclopenta[4,5]cycloocta[1,2,3-cd] inden-3-one], for which the IC50 is 12.3 nM.

`O=C1c2ncn3c(NCc4c(F)ccc5c4CCO5)ncc(c23)-c2ccc(C(F)(F)F)cc2CN1CC1CCOCC1` [Compound 66, 12-(((5-fluoro-2,3-dihydrobenzofuran-4-yl)methyl)amino)-4-((tetrahydro-2H-pyran-4-yl)methyl)-7-(trifluoromethyl)-4,5-dihydro-3H-2,4,11,12a-tetra-azabenzo[4,5]cycloocta[1,2,3-cd]inden-3-one]: the IC50 was determined as 3.61 nM.

On to `Cc1ccc2c(n1)CS(=O)(=O)c1ncn3c(NCc4c(F)ccc5c4CCO5)ncc-2c13` [Compound 95, 11-(((5-fluoro-2,3-dihydrobenzofuran-4-yl)methyl)amino)-6-methyl-4H-3-thia-2,5,10,11a-tetraazadibenzo[cd,f]azulene 3,3-dioxide], for which the IC50 was determined as 13.1 nM.

Consider `CC(C)N1Cc2nc(C(F)(F)F)ccc2-c2cnc(NCc3c(F)ccc4c3CCO4)n3cnc(c23)C1=O` [Compound 59, 12-(((5-fluoro-2,3-dihydrobenzofuran-4-yl)methyl)amino)-4-isopropyl-7-(trifluoromethyl)-4,5-dihydro-3H-2,4,6,11,12a-pentaazabenzo[4,5]cycloocta [1,2,3-cd]inden-3-one], for which the IC50 is 2.14 nM.
